EP0958820A1, “Use of an imidazol derivative for the manufacture of a medicament for treating auto-immunodiseases” (Sanofi-Synthélabo, priority 1998, dated 1999)
Where a name gives a salt, the structure may show the parent alone.

Tests used:
Format in all cases: cell-based
[1] = system: IL-4 production from mouse BMMC; assay: Antigen-induced IL-4 production from mouse BMMC (ELISA)
Procedure: (§1) • 1. Test drugs Mizolastine and terfenadine used were synthesised according to well known method in the art. Ketotifen fumarate (hereinafter 'ketotifen') was obtained from Toa Boshoku and dexamethasone from Sigma. • 2. Animals […] female mice and Balb/c female mice were used. • 3. Preparation of bone marrow-derived mast cells (hereinafter 'BMMC') Mouse BMMC were prepared in accordance with the method of Saito et al. J. Immunol. 138: 3927-3934, 1987. That is to say, femoral bone marrow cells from female CBA/J mice were suspended to concentrations of 2-5 x 10^5/ml in RPMI 1640 medium to which 50% of WEHI-3 culture supernatant had been added (containing 10% FBS, 5 x 10^-5M 2-mercaptoethanol, 50IU/ml penicillin, […] streptomycin). • 4. Production of IL-4 and TNF-α from mouse BMMC A 1/250 volume of anti-mouse DNP-IgE monoclonal antibody (Seikagaku Kogyo, […]) was added to mouse BMMC (2 x 10^6 cells/ml) and they were further sensitised by being incubated overnight. The sensitised BMMC were washed three times with RPMI 1640 medium, then suspended in RPMI 1640 medium to which 50% of WEHI-3 culture supernatant had been added to give 1.25 x 10^6 cells/ml (IL-4) or 3.75 x 10^6 cells/ml (TNF-α ). Having added 40 µl of a test drug solution prepared as a ten-fold dilution to 320 µl/well of the cell suspension and treated the cells for 30 minutes to one hour at 37°C in 5% CO2, antigen stimulation was applied adding 40 µl of a solution of dinitrophenyl human serum albumin (Sigma; hereinafter 'DNP-HSA'; 300ng/ml) (reaction solution 400 µl/well/48 well plate, final cell concentration 1∼3 x 10^6 cells/ml, final antigen concentration 30ng/ml). The level of the cytokine in the supernatant fluid from the culture was assayed by ELISA 18 hours (IL-4) or 4 hours (TNF-α ) following stimulation with the antigen. • 5. […] The level of TNF-α in the culture supernatant fluid was determined by ELISA 18 hours after stimulating with okadaic acid. • 6. […]

[2] = system: TNF-α production from mouse BMMC; assay: Antigen-induced TNF-α production from mouse BMMC (ELISA); conditions: 4 hours after antigen
Procedure: as §1

[3] = system: TNF-α production from mouse macrophages; assay: Okadaic acid-induced TNF-α production from mouse peritoneal macrophages (ELISA); conditions: Macrophage, okadaic acid 0.2 µM, 18 hours
Procedure: as §1, with “).” for “). Having added 40 µl of a test drug solution prepared as a ten-fold dilution to 320 µl/well of the cell suspension and treated the cells for 30 minutes to one hour at 37°C in 5% CO2, antigen stimulation was applied adding 40 µl of a solution of dinitrophenyl human serum albumin (Sigma; hereinafter 'DNP-HSA'; 300ng/ml) (reaction solution 400 µl/well/48 well plate, final cell concentration 1∼3 x 10^6 cells/ml, final antigen concentration 30ng/ml). The level of the cytokine in the supernatant fluid from the culture was assayed by ELISA 18 hours (IL-4) or 4 hours (TNF-α ) following stimulation with the antigen. • 5.”

**Q.** C[C@@H]1C[C@H]2[C@@H]3CCC4=CC(=O)C=C[C@]4(C)[C@@]3(F)[C@@H](O)C[C@]2(C)[C@@]1(O)C(=O)CO [Dexamethasone, dexamethasone] was tested. Which inhibition at 1 µM ([1]; Mus musculus, at 1 µM, DNP-HSA stimulated, anti-DNP-IgE sensitised BMMC, 18 hours) did it give?
**A.** 61.6%

**Q.** What about the inhibition at 1 µM ([2]; Mus musculus, at 1 µM) of the same compound?
**A.** 68.7%

**Q.** Which inhibition at 10 µM ([1]; Mus musculus, at 10 µM, DNP-HSA stimulated, anti-DNP-IgE sensitised BMMC, 18 hours) does the source give for CN1CCC(=C2c3ccccc3CC(=O)c3sccc32)CC1 [Ketotifen, Ketotifen fumarate] here?
**A.** 65.6%

**Q.** What about the “activity against TNF-α production” value ([2]; 0.1∼10 µM) of the same compound?
**A.** no activity

**Q.** Which “activity on IL-4 production” value ([1]; concentrations of 0.01∼1 µM) does the source give for CC(C)(C)c1ccc(C(O)CCCN2CCC(C(O)(c3ccccc3)c3ccccc3)CC2)cc1 (stereo not shown) [terfenadine] here?
**A.** no activity

**Q.** What about the inhibition at 1 µM [3] of the same compound?
**A.** 24.6%

**Q.** What about the “activity against TNF-α production” value ([2]; 0.01∼1 µM) of the same compound?
**A.** no activity
